In patent US6682920B1, “Compositions and methods for identifying PKB kinase inhibitors” (Onyx Pharmaceuticals, Inc., priority 1997, dated 2004):
Entries after “also recorded” stand apart in the source; their conditions may differ. Each block holds one molecule with its values, some of them ahead of it.

What was measured:
[1] = system: PKB kinases; test: Association of PKB kinases with sucrose-loaded lipid vesicles containing inositol phospholipids; assay type: binding, sheep
Experimental: To assay association of PKB and PKB kinases with lipid vesicles and the effects of different lipids on the phosphorylation of PKB, the lipid vesicles were prepared by: sonicating dry lipid films into 0.2 M sucose; 20 mM KCl; 20 mM HEPES, pH 7.4 30° C.; 0.01% azide (to give 200 μM phosphatidylcholine, 150 μM phosphatidylserine, 20 μM phosphatidylethanolamine, 10 μM spingomylin plus the indicated concentrations of inositol lipids final in the assay. These were mixed with the relevant kinases in an assay buffer containing 1 mgml^−1 BSA; 0.12 M NaCl; 1 mM EGTA; 0.2 mM calcium; 1.5 mM MgCl2; 1 mM DTT; 0.01% azide; 5 mM KCl; 20 mM HEPES, pH 7.4, 30° C. (approx. 50 nM free calcium, all final concentrations in assay) with or without [γ^32P]-ATP (1 μM final concentration) and (EE)-PKB (2.5 μM final concentration). If the assays were to estimate associated of the kinases with the lipid vesicles then after 4 mins at 30° C. the assays were centrifuged (airfuge (Beckman) maximum speed for 30 mins). Aliquots of the supernatents were removed for assays or immunoblotting. […] Phosphorylation of PKB(s) were quantitated as described above. […]
Under the same assay conditions used for the PKB phosphorylation studies, we investigated the association of both the PKB kinases and PKB itself (FIG. 2C) with the lipid vesicles in these assays. […] Phosphorylation of PKB(s) was quantitated as described herein.

[2] = molecular target: PKB kinases A-D; test: PtdIns lipid-dependent phosphorylation and activation of PKB by purified PKB kinases (lipid vesicle assay); assay type: biochemical, sheep; details: mixed lipid vesicles, (EE)-PKB 2.5 μM, [γ32P]-ATP; FIG. 2A/2B
Experimental: Assays were run in 2 stages. The first stage was run with mixed lipid vesicles either with or without D-D-S/A-PtdIns(3,4,5)P3 (final concentration 5 μM) and in the presence or absence of PKB kinase A (6 nM), wild-type (EE)-PKB (2.5 μM) or T308A/S473A-(EE)-PKB) and [γ^32P]-ATP (50 μM). The assays were stopped and PKB proteins were immunoprecipitated with α(EE)-beads, washed then incubated with [γ^32P]-ATP (10 μM) and myelin basic protein (MBP; 7 μM) to determine the activity of the immobilized PKB. The results are from a single experiment and are represented as means±SE(n=3-5); four further experiments gave similar results. PKB kinases B, C and D gave very similar results.
Assays contained; a constant concentration of mixed lipid vesicles containing the indicated concentrations of inositol phospholipids, (EE)-PKB (2.5 μM), PKB kinase A (5 nM) and [γ^32P]-ATP (1 μM, total volume 12 μl). The data shown are pooled from 12 separate experiments and are means (n=3-6, their average se was 6%).
To assay association of PKB and PKB kinases with lipid vesicles and the effects of different lipids on the phosphorylation of PKB, the lipid vesicles were prepared by: sonicating dry lipid films into 0.2 M sucose; 20 mM KCl; 20 mM HEPES, pH 7.4 30° C.; 0.01% azide (to give 200 μM phosphatidylcholine, 150 μM phosphatidylserine, 20 μM phosphatidylethanolamine, 10 μM spingomylin plus the indicated concentrations of inositol lipids final in the assay. These were mixed with the relevant kinases in an assay buffer containing 1 mgml^−1 BSA; 0.12 M NaCl; 1 mM EGTA; 0.2 mM calcium; 1.5 mM MgCl2; 1 mM DTT; 0.01% azide; 5 mM KCl; 20 mM HEPES, pH 7.4, 30° C. (approx. 50 nM free calcium, all final concentrations in assay) with or without [γ^32P]-ATP (1 μM final concentration) and (EE)-PKB (2.5 μM final concentration). If the assays were to estimate associated of the kinases with the lipid vesicles then after 4 mins at 30° C. the assays were centrifuged (airfuge (Beckman) maximum speed for 30 mins). Aliquots of the supernatents were removed for assays or immunoblotting. The pellets were rinsed rapidly with assay buffer, recentrifuged and dissolved in SDS-sample buffer. Phosphorylation of PKB(s) were quantitated as described above. […]

[3] = molecular target: (EE)-PKB, EE-tagged protein kinase B purified from SF9 cells (UniProt P31749)
[4] = system: PKB kinases; test: Phosphorylation of a water-soluble 30-mer peptide based on the PKB sequence around Thr308 by PKB kinases; assay type: biochemical, sheep; details: not shown
[5] = molecular target: (EE)-PKB, EE-tagged protein kinase B purified from SF9 cells, P31749
Sequence of (EE)-PKB, EE-tagged protein kinase B purified from SF9 cells, P31749 (P31749 whole entry, looked up): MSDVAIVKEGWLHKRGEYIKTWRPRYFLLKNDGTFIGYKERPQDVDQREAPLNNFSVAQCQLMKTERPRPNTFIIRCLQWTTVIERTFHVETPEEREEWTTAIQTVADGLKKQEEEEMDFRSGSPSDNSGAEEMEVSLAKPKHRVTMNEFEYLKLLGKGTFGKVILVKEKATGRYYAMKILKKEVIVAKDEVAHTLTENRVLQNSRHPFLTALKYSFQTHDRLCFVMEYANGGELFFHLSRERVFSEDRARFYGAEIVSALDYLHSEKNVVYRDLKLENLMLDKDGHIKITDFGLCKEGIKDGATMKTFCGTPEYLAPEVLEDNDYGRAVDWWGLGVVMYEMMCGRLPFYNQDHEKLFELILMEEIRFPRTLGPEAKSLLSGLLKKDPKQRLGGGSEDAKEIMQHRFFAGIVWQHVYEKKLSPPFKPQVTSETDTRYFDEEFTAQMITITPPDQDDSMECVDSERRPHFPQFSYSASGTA

Molecule: CCCCCCCCCCCCCCCC(=O)OC[C@H](COP(=O)(O)O[C@H]1[C@H](O)[C@@H](O)[C@H](OP(=O)(O)O)[C@@H](OP(=O)(O)O)[C@H]1O)OC(=O)CCCCCCCCCCCCCCC [D-D-P/P-PtdIns(3,4)P2]
association of PKB kinases with lipid vesicles containing the lipid ([1]; 4 mins at 30° C., vesicles pelleted by centrifugation): associated with the lipid vesicles

Molecule: CCCCC/C=C\C/C=C\C/C=C\C/C=C\CCCC(=O)OC(COC(=O)CCCCCCCCCCCCCCCCC)COP(=O)(O)OC1C(O)C(OP(=O)(O)O)C(OP(=O)(O)O)C(OP(=O)(O)O)C1O [D-D-S/A-PtdIns(3,4,5)P3, (1-stearoyl, 2-arachidonyl) snphosphatidyl D-myo-inositol (3,4,5)-trisphosphate]
molar percentage of the lipid in vesicles at which PKB kinases associated ([1]; very low molar percentages): 0.003%
PKB kinase phosphorylation/activation of PKB in the presence of the lipid [2]: phosphorylate and activate; also recorded: equally effectively activated

PKB kinase phosphorylation/activation of PKB in the presence of the lipid [2]: equally effectively activated
Molecule: CCCCC/C=C\C/C=C\C/C=C\C/C=C\CCCC(=O)OC(COC(=O)CCCCCCCCCCCCCCCCC)COP(=O)(O)OC1C(O)C(OP(=O)(O)O)C(OP(=O)(O)O)C(OP(=O)(O)O)C1O [D-L-S/A-PtdIns(3,4,5)P3, (2-arachidonyl, 3-stearoyl) sn-phosphatidyl D-myoinositol(3,4,5)-trisphosphate]

Molecule: PKB kinase A purified from sheep brain cytosol
phosphorylation and activation of PKB (activation judged by myelin basic protein phosphorylation) [3]: All four activities phosphorylate and activate (as judged by mylein basic protein (MBP) phosphorylation) PKB in the presence of the biological stereoisomers of PtdIns(3,4,5)P3 or PtdIns(3,4)P2

PKB kinase phosphorylation/activation of PKB in the presence of the lipid [2]: inactive against PKB
Molecule: phosphatidylinositol4,5-bisphosphate [PtdIns(4,5)P2]

Molecule: phosphatidylinositol-3,4,5-triphosphate [PtdIns(3,4,5)P3]
effect of the lipid on phosphorylation of 30-mer PKB Thr308 peptide [4]: dramatically inhibited

PKB kinase phosphorylation/activation of PKB in the presence of the lipid [2]: phosphorylate and activate
Molecule: phosphatidylinositol-3,4-bisphosphate [PtdIns(3,4)P2]
effect of the lipid on phosphorylation of 30-mer PKB Thr308 peptide [4]: dramatically inhibited

B1: (EE)-II, N-terminally EE-tagged 55 kd PKB kinase (complete ORF of FIG. 3) expressed in cos-7 cells (protein)
chain: MARTTSQLYDAVPIQSSVVLCSCPSPSMVRSQTESSTPPGIPGGSRQGPAMDGTAAEPRPGAGSLQHAQPPPQPRKKRPEDFKFGKILGEGSFSTVVLARELATSREYAIKILEKRHIIKENKVPYVTRERDVMSRLDHPFFVKLYFTFQDDEKLYFGLSYAKNGELLKYIRKIGSFDETCTRFYTAEIVSALEYLHGKGIIHRDLKPENILLNEDMHIQITDFGTAKVLSPESKQARANSFVGTAQYVSPELLTEKSACKSSDLWALGCIIYQLVAGLPPFRAGNEYLIFQKIIKLEYDFPEKFFPKARDLVEKLLVLDATKRLGCEEMEGYGPLKAHPFFESVTWENLHQQTPPKLTAYLPAMSEDDEDCYGNYDNLLSQFGCMQVSSSSSSHSLSASDTGLPQRSGSNIEQYIHDLDSNSFELDLQFSEDEKRLLLEKQAGGNPWHQFVENNLILKMGPVDKRKGLFARRRQLLLTEGPHLYYVDPVNKVLKGEIPWSQELRPEAKNFKTFFVHTPNRTYYLMDPSGNAHKWCRKIQEVWRQRYQSHPDAAVQ
PKB kinase activity ([32P] in PKB, autoradiogram) [5]: The protein with the intact protein kinase domain phosphorylated PKB in a PtdIns(3,4,5)P3-sensitive manner
